Experiment in all cases: DTP human tumour cell line panel, 48 h
Assay [1] concerns BT-549 breast.
Assay [2] relates to SR leukemia.
Assay [3] relates to NCI-H23 lung.
Assay [4] has as its system A549 NSCLC.
Assay [5] concerns HCT-116 colon.
Assay [6] deals with CAKI-1 renal.
Assay [7] concerns UACC-257 melanoma.
Assay [8] relates to ACHN renal.
The test system of assay [9] is HT29 colon.
Assay [10] deals with NCI-H226 lung.

Here are results for nine compounds from PubChem BioAssay (NCI).

Each structure is given as a SMILES string. Several values for one entry are separate records, joined by “and”; a condition that tells them apart may be missing. Equal entries are not always repeated.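 Cells were grown in 96-well plates and exposed to each compound for 48 hours at five concentrations; endpoints were interpolated linearly between bracketing concentrations, or set to the highest concentration if not reached. At the GI50, growth is halved. TGI marks complete inhibition of growth.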 Some results are limits rather than exact numbers.

Consider `O=C(O)CCC(=O)c1ccc2ccc3cccc4ccc1c2c34`, for which the TGI in assay [1], in assay [2], in assay [3], in assay [4], in assay [5] and in assay [6] was more than 100 µM in each case. For the same compound, the concentration for total growth inhibition (TGI) in assay [7], in [8], in assay [9] and in assay [10] was more than 100 µM throughout.
Take `O=C(CF)N(O)c1ccc(/C=C/c2ccccc2)cc1`: the GI50 (usually the concentration that inhibits growth by half) in assay [1] was 4.37 µM; in assay [2], 0.257 µM; in [3] it was 3.39 µM; in [4], 1.17 µM; in assay [5], 0.805 µM; in assay [6] it was 0.609 µM. For the same compound, the GI50 is 1.67 µM in assay [7], 0.736 µM in assay [8], 3.52 µM in [9] and 0.77 µM in [10]. For the same compound, the concentration for total growth inhibition (TGI) (as a rule, the concentration giving total growth inhibition) in [1] was more than 100 µM; in assay [2] it was 4.04 µM; in [3], 98.4 µM; in [4] it was more than 100 µM; in [5] it was 6.63 µM; in [6], 2.85 µM. The concentration for total growth inhibition (TGI) is 5.59 µM in assay [7], 30 µM in assay [8], more than 100 µM in [9] and 3.24 µM in [10].
With `CCN1C(NN)=NS(=O)(=O)c2ccccc21`, the concentration for total growth inhibition (TGI) in assay [1], in [2], in assay [3], in assay [4], in assay [5] and in assay [6] was more than 100 µM each time. Besides, the TGI in assay [7], in assay [8], in assay [9] and in assay [10] was more than 100 µM each time.
For `O=C(CSC(c1ccccc1)c1ccccc1)N/N=C/c1cccc(Cl)c1`, the GI50 in assay [1] is 17.9 µM; in [2] it was 17.7 µM; in [3], 14.9 µM; in assay [4] it was 15.1 µM; in assay [5], 15.7 µM; in assay [6] it was 23.4 µM. The GI50 in assay [7] is 14.6 µM; in assay [8], 13.7 µM; in assay [10], 15.6 µM. Besides, the TGI in [1] was 32.2 µM; in assay [2] it was 38.3 µM; in [3], 29 µM; in assay [4] it was 40.1 µM; in assay [5] it was 29.1 µM; in assay [6], 52.5 µM. Also, the figures for the TGI in assay [7], in [8] and in assay [10] were 32.1 µM, 26.6 µM and 31.3 µM, respectively.
In the case of `COc1ccc2c(c1)C(=O)C(=O)c1cc(O)c(OC)c(OC)c1-2`, the GI50 in assay [1] is 1.66 µM; in assay [3], 1.77 µM; in assay [4] it was 1.96 µM; in assay [5], 1.72 µM; in [6], 1.77 µM; in assay [7], 1.55 µM. Further, the GI50 was 1.97 µM in assay [8] and 1.95 µM in assay [10]. The TGI was 1.44 µM and 3.02 µM in assay [1]; 6.39 µM in assay [2]; 1.77 µM and 4.23 µM in assay [3]; 12.1 µM and 3.89 µM in assay [4]; 1.6 µM and 3.09 µM in assay [5]; 1.67 µM and 3.15 µM in [6]. The total growth inhibition concentration (TGI) in assay [7] was 1.61 µM and 2.89 µM; in assay [8], 1.59 µM and 3.38 µM; in [9] it was 3.83 µM; in assay [10] it was 14.3 µM and 3.9 µM.
In the case of `Oc1c(CN2CCCC2)cc(COCc2ccc(Br)cc2)c2cccnc12`, the GI50 in assay [1] was 1.81 µM; in [2], 0.365 µM; in assay [3], 0.969 µM; in assay [4], 0.914 µM; in [5], 0.365 µM; in assay [6] it was 0.106 µM. Besides, the GI50 was 1.34 µM in assay [7], 0.241 µM in [8], 3.53 µM in [9] and 1.05 µM in assay [10]. The total growth inhibition concentration (TGI) is 6.49 µM in assay [1]; 2.23 µM in assay [2]; 3.33 µM in assay [3]; 9.89 µM in [4]; 3.56 µM in assay [5]; 2.28 µM in assay [6]. For the same compound, the TGI came to 3.02 µM in [7], 1.97 µM in assay [8], 13.2 µM in [9] and 2.96 µM in [10].
Take `Cc1ccc(C)c(NC(=O)NCc2ccc(Cl)cc2)c1`: the TGI in assay [1] is more than 100 µM; in assay [2] it was 27.8 µM; in [3], more than 100 µM; in [4] it was more than 100 µM; in assay [5], more than 100 µM; in assay [6] it was more than 100 µM. Besides, the TGI is more than 100 µM in assay [7], more than 90.7 µM in [8], more than 100 µM in assay [9] and 98.8 µM in assay [10].
`CC/C=C\C/C=C\C[C@H](O)C/C=C1/C(=O)C=C[C@@H]1C/C=C\CCCC(=O)O`: the GI50 was 2.96 µM in [1]; 2.46 µM in assay [2]; 4.09 µM in assay [3]; 13.6 µM in [4]; 2.08 µM in assay [5]; 6.56 µM in assay [6]. Also, the GI50 in assay [7] is 5.35 µM; in assay [8], 4.84 µM; in assay [9], 3.78 µM; in assay [10] it was 2.57 µM. Besides, the TGI came to 9.1 µM in assay [1]; 16.7 µM in assay [2]; 17.1 µM in assay [3]; 56.6 µM in assay [4]; 4.5 µM in assay [5]; 21.4 µM in assay [6]. Also, the total growth inhibition concentration (TGI) in assay [7] came to 19.2 µM; in assay [8], 18.5 µM; in [9], 11.4 µM; in [10], 5.86 µM.
Turning to `COC(=O)[C@]12CC[C@@H](C)[C@H](C)[C@@H]1C1=CC[C@@H]3[C@@]4(C)C(C=O)=C[C@@](C)(COC(=O)c5ccco5)[C@@H]4C(=O)C[C@@]3(C)[C@]1(C)CC2`, the GI50 in assay [1] is 4.06 µM; in assay [2], 3.12 µM; in assay [3], 4.33 µM; in assay [4], 3.99 µM; in assay [5], 3.68 µM; in assay [6], 3.77 µM. Further, the concentration for 50% growth inhibition (GI50) in assay [7] was 0.148 µM; in [8], 1.22 µM; in [9] it was 7.92 µM; in assay [10] it was 2.63 µM. In addition, the TGI in [1] is more than 100 µM; in assay [2] it was 39.4 µM; in assay [3], more than 100 µM; in [4] it was more than 100 µM; in [5], more than 100 µM; in assay [6], more than 100 µM. Moreover, the TGI was 0.666 µM in assay [7], more than 100 µM in assay [8], more than 100 µM in assay [9] and 12.6 µM in [10].
